Data as given in patent US20240002326A1, “COMPOUNDS AND USE THEREOF IN METHODS OF TREATMENT” (The University of Queensland, priority 2016, published 2024).
Entries after “also recorded” stand apart in the source; their conditions may differ.

Target: SOX18-RBPJ interaction (Homo sapiens (Human), UniProt P35713)
Experiment: ALPHAScreen SOX18-RBPJ protein-protein interaction
Format: binding
Description: Proteins were genetically encoded with enhanced GFP (GFP), mCherry and cMyc (myc) tags, and cloned into cell free expression Gateway destination vectors: N-terminal GFP tagged (pCellFree_G03), N-terminal Cherry-cMyc (pCellFree_G07) and C-terminal Cherry-cMyc tagged (pCellFree_G08) (Gagoski et al., 2015). Human RBPJ (BC020780) and MEF2C (BC026341) Open Reading Frames (ORFs) were sourced from the Human ORFeome collection, version 1.1 and 5.1, and the Human Orfeome collaboration OCAA collection (Open Biosystems), as previously described (Sierecki et al., 2013) and cloned at the ARVEC facility, UQ Diamantina Institute. The entry clones pDONOR223 or pENTR201 vectors were exchanged with the ccdB gene in the expression plasmid by LR recombination (Life Technologies, Australia). The full-length human SOX18 gene was synthesized and the transfer to vectors was realized using Gateway PCR cloning. Translation competent Leishmania tarentolae extract (LTE) was prepared as previously described (Kovtun et al., 2011, Mureev et al., 2009). Protein pairs were co-expressed by adding 30 nM of GFP template plasmid and 60 nM of Cherry template plasmid to LTE and incubating for 3 hours at 27° C.
ALPHAScreen was performed as previously described (Sierecki et al., 2014, Sierecki et al., 2013). […] Percentage of interaction was calculated as: (I_cpd/I_DMSO)×100 from 3 independent experiments.
ALPHAScreen was performed as previously described (Sierecki et al., 2014, Sierecki et al., 2013), using the cMyc detection kit and Proxiplate-384 Plus plates (PerkinElmer). The LTE lysate co-expressing the proteins of interest was diluted in buffer A (25 mM HEPES, 50 mM NaCl). For the assay, 12.5 μL (0.4 μg) of Anti-cMyc coated Acceptor Beads in buffer B (25 mM HEPES, 50 mM NaCl, 0.001% NP40, 0.001% casein) were aliquoted into each well. This was followed by the addition of 2 μL of diluted sample, at different concentration, and 2 μL of biotin labeled GFP-Nanotrap in buffer A. The plates were incubated for 45 min at room temperature, then adding 2 μL (0.4 μg) of streptavidin-coated Donor Beads diluted in buffer A, and incubation in the dark for 45 min at room temperature. The ALPHAScreen signal was measured on an Envision Plate Reader (PerkinElmer), using manufacturer's recommended settings (λexc=680/30 nm for 0.18 s, λem=570/100 nm after 37 ms). The resulting bell-shaped curve is an indication of a positive interaction, while a flat line reflects a lack of interaction between the proteins. The measurement of each protein pair was repeated in triplicate.
I is the highest signal level (top of the hook effect curve) and Ineg is the lowest (background) signal level. The signals were normalized to the Iref signal obtained for the strongest interaction. […] Percentage of interaction was calculated as: […]
The ALPHA-Screen Assay was performed as previously described (Sierecki et al. 2014), using the cMyc detection kit and Proxiplate-384 Plus plates (PerkinElmer). A serial dilution of each sample was measured. The LTE lysate co-expressing the proteins of interest was diluted in buffer A (25 mM HEPES, 50 mM NaCl). For the assay, 12.5 μL (0.4 μg) of Anti-cMyc coated Acceptor Beads in buffer B (25 mM HEPES, 50 mM NaCl, 0.001% NP40, casein) were aliquoted into each well. This was followed by the addition of 2 μL of diluted sample and 2 μL of biotin labeled GFP-Nanotrap in buffer A. The plate was incubated for 45 min at RT. Afterward, 2 μL (0.4 μg) of Streptavidin coated Donor Beads diluted in buffer A, were added, followed by incubation in the dark for 45 min at RT. The ALPHA-Screen signal was obtained on an Envision Multilabel Plate Reader (PerkinElmer), using the manufacturer's recommended settings (excitation: 680/30 nm for 0.18 s, emission: 570/100 nm after 37 ms). The resulting bell-shaped curve is an indication of a positive interaction, while a flat line reflects a lack of interaction between the proteins. […]

SOX18-RBPJ interaction, sequence (P35713 whole entry): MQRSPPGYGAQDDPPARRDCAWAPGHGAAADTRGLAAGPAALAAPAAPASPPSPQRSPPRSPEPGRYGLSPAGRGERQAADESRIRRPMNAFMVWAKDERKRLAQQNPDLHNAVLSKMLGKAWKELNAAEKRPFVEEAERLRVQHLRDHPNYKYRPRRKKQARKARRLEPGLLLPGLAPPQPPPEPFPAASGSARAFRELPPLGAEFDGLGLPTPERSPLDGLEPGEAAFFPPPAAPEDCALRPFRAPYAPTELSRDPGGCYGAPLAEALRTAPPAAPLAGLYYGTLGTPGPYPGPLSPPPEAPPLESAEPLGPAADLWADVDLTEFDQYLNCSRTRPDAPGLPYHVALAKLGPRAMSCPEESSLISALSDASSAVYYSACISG

Row | SOX18-RBPJ protein-protein binding inhibition at 5 μM | Structure (SMILES) | IC50 (ALPHAScreen, read-out: SOX18-RBPJ interaction disruption IC50) [µM]
1 | highly active | Oc1cc(CCc2ccccc2)cc(O)c1O [Sm40, 5-phenethylbenzene-1,2,3-triol] | 
2 |  | O=C(O)c1ccccc1Nc1cccc(C(F)(F)F)c1 [Flufenamic acid, reference compound] | ~444
3 | highly active | COc1cc(C)cc(/C=C/c2ccc3ccccc3c2)c1C(=O)O [Sm34, (E)-2-methoxy-4-methyl-6-(2-(naphthalen-2-yl)vinyl)benzoic acid] | 

Row | Structure (SMILES) | SOX18-RBPJ protein-protein binding inhibition at 5 μM | IC50 (ALPHAScreen, read-out: SOX18-RBPJ interaction disruption IC50) [µM]
4 | CCN(CC)C(=O)c1c(O)cc(O)cc1CCc1ccc2ccccc2c1 [Sm26, N,N,diethyl-2,4-hydroxy-6-(2-(naphthalen-2-yl)ethyl)benzamide] | highly active; also recorded: moderately active | 
